Test results published in patent US6599917B1, “Quinuclidine compounds and drugs containing the same as the active ingredient” (priority 1999, dated 2003).

Experiments:
[1] = test system: triglyceride biosynthesis; assay: Measurement of triglyceride biosynthesis inhibitive activity in a rat liver cell; format: cell-based; conditions: for Triglyceride biosynthesis inhibitive activity inhibition in 1 μM of the specimen: isolated rat liver cells, [1-14C]acetic acid added 4 hours after the specimen, inhibition rate to control group; for inhibition at 1 µM: Rattus norvegicus, 6 h, read-out: Triglyceride biosynthesis inhibitive activity inhibition in 1 μM of the specimen
Description: (§1) Measurement of Cholesterol and Triglyceride Biosynthesis Inhibitive Activities in a Rat Liver Cell
(§2) A liver cell was isolated from a male SD rat according to a usual method (collagenase perfusion method) and subjected to an experiment.
(§3) The isolated liver cells were planted in an amount of 500 μ1 every well on a Type collagen coated 24 well plate (cell density: 4×10^5 cell/ml). As the cell culture solution, a Williams'E medium (adjusted to pH 7.4) containing 10% FCS, 1 μM insulin, 1 μM dexamethasone, 100 units/ml penicillin and 10 μg/ml streptomycin was used. After the liver cells were incubated in a CO2 incubator for 2 hours, unstuck cells were removed and the liver cells were further incubated overnight.
(§4) After the culture medium was exchanged, the specimen diluted in a 10% DMSO-90% cell culture solution was added to each well in an amount of 5 μ1. DMSO (final concentration: 0.1%) was added to a control group. A [1-^14C]Acetic acid, sodium salt (5 μCi/well) was added to the media 10 minutes and 4 hours after the specimen was added for the measurement of cholesterol synthesis inhibitive action and for the measurement of triglyceride synthesis inhibitive action respectively, followed by culturing for further 2 hours.
(§5) After the cultivation was finished, the supernatant was removed and the cells were washed using PBS(−)(Phosphate buffered saline (Ca^2+, Mg^2+free) twice. Hexane/isopropyl alcohol (3:2, v/v) was added to the cells and the cells were then allowed to stand for 10 minutes to extract intracellular lipid. The extract was transferred to a glass tube and exsiccated under a nitrogen gas stream. Further, the exsiccated extract was washed with 25 mL of petroleum ether and then dissolved in petroleum ether containing the following components: 0.01% squalene, 0.3% free cholesterol, 0.3% cholesterol acetate, 0.1% triolein, 0.01% farnesol and 0.3% lanosterol.
(§6) The resulting solution was spotted on a TLC plate to perform an isolating operation. The spotted solution was developed for 10 minutes by using toluene/isopropyl ether (1:1, v/v) as the solvents and for further 15 minutes by using heptane in place of the above solvent after it was dried using air.
(§7) After the development was finished, the TLC plate was subjected to iodine color development. After each position of free cholesterol and triolein which were used as standards was confirmed, the image of the TLC plate was transferred to a BAS 2000 (Fuji Film) imaging plate by exposure performed for 16 hours. This transferred image was analyzed using a BAS 2000 IP Reader and an Imaging analyzer II to measure radiative activities contained in the free cholesterol and triglyceride fractions.
(§8) The cholesterol biosynthesis inhibitive activity was expressed by a concentration (IC50) at which 50% of the radiative activity of the control group was inhibited and the triceride biosynthesis inhibitive activity was expressed by an inhibition rate (%) to the control group.

cholesterol biosynthesis [2] = assay: Measurement of cholesterol biosynthesis inhibitive activity in a rat liver cell; format: cell-based; conditions: isolated rat liver cells, [1-14C]acetic acid added 10 minutes after the specimen
Description: as §1, §2, §3, §4, §5, §6, §7, §8

[3] = molecular target: T1, squalene synthesizing enzyme (Rattus norvegicus, UniProt Q02769); assay: Measurement of squalene synthesizing enzyme inhibitive activity by using a rat liver microsome; format: biochemical; conditions: [3H]-farnesylpyrophosphoric acid
T1 construct: The liver was excised from a male Spraugue-Dawly rat; from tissue; host or cells: liver microsome fraction of male Sprague-Dawley rat (8 to 9 weeks)
T1 sequence (Q02769 1-416): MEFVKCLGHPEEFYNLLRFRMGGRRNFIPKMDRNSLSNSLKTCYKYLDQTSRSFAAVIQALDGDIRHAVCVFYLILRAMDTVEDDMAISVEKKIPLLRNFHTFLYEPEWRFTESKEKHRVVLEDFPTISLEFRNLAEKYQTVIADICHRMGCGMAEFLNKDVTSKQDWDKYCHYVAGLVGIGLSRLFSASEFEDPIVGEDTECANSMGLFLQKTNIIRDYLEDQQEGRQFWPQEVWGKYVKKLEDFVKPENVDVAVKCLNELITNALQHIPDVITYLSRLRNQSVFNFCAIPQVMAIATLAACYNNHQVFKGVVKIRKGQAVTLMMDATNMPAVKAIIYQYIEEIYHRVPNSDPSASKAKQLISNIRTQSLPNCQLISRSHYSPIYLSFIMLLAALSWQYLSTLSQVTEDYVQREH
Description: Measurement of Squalene Synthesizing Enzyme Inhibitive Activity by Using a Rat Liver Microsome
(I) The reaction was run on a scale of 500 μ1. 200 µl of a solution containing 125 mM tris-hydrochloric acid (pH: 7.3), 2.5 mM magnesium chloride, 5 mM potassium fluoride and 10 mM reduction type nicotinamidoadenine dinucleotide phosphoric acid, 100 µl of the specimen solution with a 5-fold concentration, 100 µl of distilled water and 50 µl of 0.4 to 1 mg/ml rat liver microsome prepared by the following method were mixed.
(II) The above mixture was pre-incubated at 37° C. for 10 minutes and thereafter, 50 µl of 100 μM [^3H]-farnesylpyrophosphoric acid (30 mCi/mmol, NEN) was added to the mixture to start a reaction. The reaction was continued at 37° C. for 10 minutes. 1 ml of ethanol was added to the resulting mixture to terminate the reaction and then 1 ml of distilled water and 3 ml of petroleum ether were added to the reaction solution, which was then shaken for 30 minutes. The water phase was separated from the oil phase, the water phase was frozen at −70° C. in dry ice/methanol and the radiative activity of the organic phase was measured using a liquid scintillator. Or the organic phase was evaporated to dryness using nitrogen gas and the residue was dissolved as a marker in 25 µl of chloroform containing squalene, farnesol and cholesterol. This sample was spotted on a TCL plate (Merck) and developed using heptane for 15 to 20 minutes. A band of squalene was cut from the plate to measure the radiative activity by using a liquid scintillation counter. The data was expressed by a concentration (IC50) at which 50% of the radiative activity of a control group was inhibited.
Method of the Preparation of a Rat Liver Microsome
The following operations were all carried out on ice and the centrifugation was performed at 4° C. The liver was excised from a male Spraugue-Dawly rat (hereinafter referred to as SD rat) (8 to 9 weeks age) and perfused with 1.15% potassium chloride to remove the blood. Then, the liver was minced using a forceps and the minced liver was homogenized using a Teflon homogenizer. The resulting sample was centrifuged at 16000×g twice for 15 minutes. The supernatant was further centrifuged at 105000×g for 60 minutes. The obtained deposit was determined as a microsome fraction, which was then suspended in a 25 mM tris-hydrochloric acid solution. The concentration of protein was measured quantitatively by a Bradford method and the concentration of protein was adjusted to 20 mg/ml by using the same solution. The resulting solution was stored at […].

cholesterol biosynthesis [4] = assay: Measurement of cholesterol biosynthesis inhibitive activity in a rat; format: in vivo; conditions: 2 h, male SD rat, oral, inhibition rate to control group
Description: Measurement of Cholesterol Biosynthesis Inhibitive Activity in a Rat
(I) An SPF grade male SD rat (4 weeks age, SLC) was bred for more than one week in a day-night-reversal room and subjected to an experiment made in the daytime. The compound dissolved in a 2% Tween 80 solution was administered (5 ml/kg) to the rat using an oral sonde. After one hour, a [1-^14C]Acetic acid, sodium salt (1.67-2.22 GBq/mmol, 37 MBq/ml, NEN) prepared by diluting to 1.85 MBq/ml by using physiological saline was intraabdominally administered (300 μ1/animal). After one hour, the rat was anesthetized by diethyl ether to carry out exsanguination from the aorta abdominalis. The collected blood was centrifuged at 3000 rpm for 10 minutes to prepare blood plasma.
(II) 1 ml of 4N KOH and 1 ml of ethanol were added to 2 ml of the blood plasma, which was then incubated at 65° C. for one hour and there after, 3 ml of petroleum ether was added. The plasma was shaken for 30 minutes. After the water phase was separated from the organic phase by centrifugation, it was frozen at −80° C. and the radiative activity of the organic phase was measured using a liquid scintillation counter. Or the organic phase was evaporated to dryness using nitrogen gas and the residue was dissolved as a marker in 25 µl of chloroform containing squalene, farnesol and cholesterol. This sample was applied to a TCL plate (Merck) and developed using toluene and isopropyl ether (1:1) for 15 to 20 minutes. A band of cholesterol was cut from the plate to measure the radiative activity by using a liquid scintillation counter. The cholesterol biosynthesis inhibition activity was expressed by an inhibition rate (%) to a control group.

Compound	inhibition at 1 µM [1] [%]	IC50 [3] [nM]	IC50 (cholesterol biosynthesis [2]; 10 min) [nM]	further results
CO[C@H]1CN(c2ccc(C#C[C@@]3(O)CN4CCC3CC4)c(Cc3ccccc3)n2)C[C@H]1OC (relative stereo) [Example 120, (3R)-3-[2-Benzyl-6-(cis-3,4-dimethoxyprrolidine-1-yl)-3-pyridyl]ethynyl-3-quinuclidinol]				Triglyceride biosynthesis inhibitive activity inhibition in 1 μM of the specimen [1]: 80%; IC50 (cholesterol biosynthesis [2]): 75 nM
CO[C@H]1CN(c2ccc(C#C[C@@]3(O)CN4CCC3CC4)c(Cc3ccccc3)n2)C[C@H]1O [Example 106, (3R)-3-[2-Benzyl-6-[(3R,4S)-3-hydroxy-4-methoxypyrrolidine-1-yl)-3-pyridyl]ethynyl-3-quinuclidinol]	81	6.9		
CO[C@@H]1CN(c2ccc(C#C[C@@]3(O)CN4CCC3CC4)c(Cc3ccccc3)n2)C[C@@H]1F [Example 110]	84	2.1		
CO[C@@H]1CN(c2nc(Cc3ccccc3)c(C#C[C@@]3(O)CN4CCC3CC4)cc2Cl)C[C@H]1O [Example 116, (3R)-(3R)-3-[2-Benzyl-5-chloro-6[(3R,4R)-3-hydroxy-4-methoxypyrrolidine-1-yl]-3-pyridyl]ethynyl-3-quinuclidinol]		0.77	72	
CO[C@@H]1CN(c2nc(Cc3ccccc3)c(C#C[C@@]3(O)CN4CCC3CC4)cc2Br)C[C@H]1O [Example 117, (3R)-3-[2-Benzyl-5-bromo-6-[(3R,4R)-3-hydroxy-4-methoxypyrrolidine-1-yl]-3-pyridyl]ethynyl-3-quinuclidinol]		4.5	79	
CO[C@H]1C(=O)N(c2ccc(C#C[C@@]3(O)CN4CCC3CC4)c(Cc3ccccc3)n2)C[C@H]1O [Example 124, (3R)-3-[2-Benzyl-6-[(3R,4R)-4-hydroxy-3-methoxy-2-pyrrolidinone-1-yl]-3-pyridyl]ethynyl-3-quinuclidinol]	79	1.8	81	
O=C1N(c2ccc(C#C[C@@]3(O)CN4CCC3CC4)c(Cc3ccccc3)n2)CCC12OCCO2 [Example 138, (3R)-3-[2-Benzyl-6-(3,3-ethylenedioxy-2-pyrrolidinone-1-yl)-3-pyridyl]ethynyl-3-quinuclidinol]		0.35	14	
COC(C)COc1ccc(C#C[C@@]2(O)CN3CCC2CC3)c(Cc2ccccc2)n1 (stereo partly drawn) [Example 148, (3R)-3-[2-Benzyl-6-(2-methoxypropyl)oxy-3-pyridyl]ethynyl-3-quinuclidinol]			160	inhibition in vivo at 3 mg/kg (cholesterol biosynthesis [4]; dose 3 mg/kg): 92%
COC(C)COc1ccc(C#C[C@]2(O)CN3CCC2CC3)c(Cc2ccccc2)n1 (stereo partly drawn) [Example 149, (3S)-3-[2-Benzyl-6-(2-methoxypropyl)oxy-3-pyridyl]ethynyl-3-quinuclidinol]			590	
O[C@]1(C#Cc2ccc(OCCCF)nc2Cc2ccccc2)CN2CCC1CC2 [Example 150, (3R)-3-[2-Benzyl-6-(3-fluoropropyl)oxy-3-pyridyl]ethynyl-3-quinuclidinol]	80			inhibition in vivo at 1 mg/kg (cholesterol biosynthesis [4]; dose 1 mg/kg): 73%
OCCCOc1ccc(C#C[C@@]2(O)CN3CCC2CC3)c(Cc2ccccc2)n1 [Example 166, (3R)-3-[2-Benzyl-6-(3-hydroxypropyl)oxy-3-pyridyl]ethynyl-3-quinclidinol]	82	15		
O[C@]1(C#Cc2cnc(-c3cccnc3)cc2Cc2ccccc2)CN2CCC1CC2 [Example 176, (3R)-3-[4-Benzyl-2-(3-pyridyl)-5-pyridyl]ethynyl-3-quinuclidinol]	74			
O[C@]1(C#Cc2cnc(-c3ccccn3)cc2Cc2ccccc2)CN2CCC1CC2 [Example 179, (3R)-3-[4-Benzyl-2-(2-pyridyl)-5-pyridyl]ethynyl-3-quinuclidinol]	84		130	
O[C@]1(C#Cc2cnc(C3=COCCO3)cc2Cc2ccccc2)CN2CCC1CC2 [Example 186, (3R)-3-[4-Benzyl-2-(1,4-dioxene-2-yl)-5-pyridyl]ethynyl-3-quinuclidinol]				IC50 (cholesterol biosynthesis [2]): 69 nM
(3R)-3-[4-Benzyl-2-[(3R,4R)-3-hydroxy-4-methoxypyrrolidine-1-yl]-3-pyrimidyl]ethynyl-3-quinuclidinol [Example 201]		1.6		Triglyceride biosynthesis inhibitive activity inhibition in 1 μM of the specimen [1]: 85%
(3R)-3-[Benzyl-6-(3,3-ethylenedioxypyrrolidine-1-yl]-3-pyridyl]ethynyl-3-quinuclidinol [Example 118]		2.5		Triglyceride biosynthesis inhibitive activity inhibition in 1 μM of the specimen [1]: 85%; IC50 (cholesterol biosynthesis [2]): 75 nM
